In ChEMBL document CHEMBL3785043, “Exploring the purine core of 3'-C-ethynyladenosine (EAdo) in search of novel nucleoside therapeutics” (Bioorg Med Chem Lett, 2016):
The source made the active and inactive calls. No cut-off for these calls is given here.

Experiments:
Human alphaherpesvirus 1 [1] = assay: Antiviral activity against Aciclovir-resistant thymidine kinase-deficient HSV-1 KOS at 100 uM; format: functional, organism-based
[2] = tested on: Respiratory syncytial virus; assay: Antiviral activity against Respiratory syncytial virus long at 100 uM; format: functional, organism-based
[3] = tested on: Human immunodeficiency virus 1; assay: Antiviral activity against HIV1 3B infected in human MT4 cells at 100 uM preincubated with cells for 30 mins followed by HIV inoculation measured after 4 to 5 days by microscopic analysis; format: functional, organism-based
Punta Toro virus = assay: Antiviral activity against Punta Toro virus at 100 uM; format: functional, organism-based
Influenza B virus = assay: Antiviral activity against Influenza virus B at 100 uM; format: functional, organism-based
L1210 = assay: Cytostatic activity against mouse L1210 cells after 48 hrs by Coulter counter method; format: functional, cell-based; conditions: L1210, 48 h
Human adenovirus 2 = assay: Antiviral activity against Adenovirus 2 at 100 uM; format: functional, organism-based
Human alphaherpesvirus 2 [4] = assay: Antiviral activity against HSV-2 G at 100 uM; format: functional, organism-based; conditions: strain G
CCRF-CEM = assay: Cytostatic activity against human CEM cells after 72 hrs by Coulter counter method; format: functional, cell-based
Vaccinia virus = assay: Antiviral activity against Vaccinia virus Lederle; format: functional, organism-based; conditions: Orthopoxvirus vaccinia
[5] = tested on: Mammalian orthoreovirus 1; assay: Antiviral activity against Reovirus 1 at 100 uM; format: functional
[6] = tested on: Human immunodeficiency virus 2; assay: Antiviral activity against HIV2 ROD infected in human MT4 cells at 100 uM preincubated with cells for 30 mins followed by HIV inoculation measured after 4 to 5 days by microscopic analysis; format: functional, organism-based; conditions: ISOLATE ROD
HeLa = assay: Cytostatic activity against human HeLa cells after 72 hrs by Coulter counter method; format: functional, cell-based
Human alphaherpesvirus 2 [7] = assay: Antiviral activity against HSV-2 lyons at 100 uM; format: functional, organism-based
[8] = tested on: Human immunodeficiency virus 1; assay: Antiviral activity against HIV 1 NL4-3 infected in human MT4 cells at 100 uM preincubated with cells for 30 mins followed by HIV inoculation measured after 4 to 5 days by microscopic analysis; format: functional, organism-based
Sindbis virus = assay: Antiviral activity against Sindbis virus at 100 uM; format: functional, organism-based
[9] = tested on: Vesicular stomatitis virus; assay: Antiviral activity against VSV at 100 uM; format: functional, organism-based
Human respirovirus 3 = assay: Antiviral activity against parainfluenza virus 3 at 100 uM; format: functional, organism-based
Human betaherpesvirus 5 [10] = assay: Antiviral activity against Human cytomegalovirus Davis at 100 uM; format: functional, organism-based
Human alphaherpesvirus 1 [11] = assay: Antiviral activity against HSV-1 KOS at 100 uM; format: functional, organism-based
Influenza A virus [12] = assay: Antiviral activity against Influenza virus A H3N2 at 100 uM; format: functional, organism-based
Influenza A virus [13] = assay: Antiviral activity against Influenza virus A H1N1 at 100 uM; format: functional, organism-based
Coxsackievirus B4 = assay: Antiviral activity against Coxsackie B4 virus at 100 uM; format: functional, organism-based
Human betaherpesvirus 5 [14] = assay: Antiviral activity against Human cytomegalovirus AD169 at 100 uM; format: functional, organism-based
Human alphaherpesvirus 3 [15] = assay: Antiviral activity against VZV Oka; format: functional, organism-based; conditions: Human alphaherpesvirus 3, strain Oka vaccine
[16] = biological target: Adenosine receptor A3 (Homo sapiens) (UniProt P0DMS8); assay: Agonist activity at adenosine A3 receptor (unknown origin) assessed as inhibition of forskolin-stimulated adenylyl cyclase activity at 10 uM; format: functional
Chain of Adenosine receptor A3 (Homo sapiens) (P0DMS8 whole entry): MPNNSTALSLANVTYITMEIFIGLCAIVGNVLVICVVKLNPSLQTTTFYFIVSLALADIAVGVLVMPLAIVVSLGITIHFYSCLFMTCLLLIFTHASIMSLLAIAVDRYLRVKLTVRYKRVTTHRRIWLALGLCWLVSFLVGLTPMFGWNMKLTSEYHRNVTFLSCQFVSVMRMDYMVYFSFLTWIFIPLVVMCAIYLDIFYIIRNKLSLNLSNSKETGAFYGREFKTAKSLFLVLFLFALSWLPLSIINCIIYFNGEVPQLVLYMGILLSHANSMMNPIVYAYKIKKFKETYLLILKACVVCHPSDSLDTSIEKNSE

Human alphaherpesvirus 3 [17] = assay: Antiviral activity against thymidine kinase deficient VZV 07-1; format: functional, organism-based; conditions: Human alphaherpesvirus 3, 07-1

Row | SMILES | Activity (Human alphaherpesvirus 1 [1]) | Activity [2] | Activity [3] | Activity (Punta Toro virus) | Activity (Influenza B virus) | IC50 (L1210) [µM] | Activity (Human adenovirus 2) | Activity (Human alphaherpesvirus 2 [4]) | IC50 (CCRF-CEM) [µM] | Activity [5] | Activity [6] | IC50 (HeLa) [µM] | Activity (Human alphaherpesvirus 2 [7]) | Activity [8] | Activity (Sindbis virus) | Activity [9] | Activity (Human respirovirus 3) | Activity (Human betaherpesvirus 5 [10]) | Activity (Human alphaherpesvirus 1 [11]) | Activity (Influenza A virus [12]) | further results
1 | C#C[C@@]1(O)[C@@H](CO)O[C@@H](n2cnc3c(N)ncnc32)[C@@H]1O | inactive | inactive | inactive | inactive | inactive | 0.73 | inactive | inactive | 0.61 | inactive | inactive | 0.29 | inactive | inactive | inactive | inactive | inactive | inactive | inactive | inactive | EC50 (Vaccinia virus): 0.35 µM; Activity (Influenza A virus [13]): inactive; Activity (Coxsackievirus B4): inactive; Activity (Human betaherpesvirus 5 [14]): inactive
2 | C#C[C@@]1(O)[C@@H](CO)O[C@@H](n2cnc3c(NCc4cccc(Cl)c4)nc(Cl)nc32)[C@@H]1O | inactive | inactive | inactive | inactive | inactive | 50 | inactive | inactive | 22 | inactive | inactive | 43 | inactive | inactive | inactive | inactive | inactive | inactive | inactive | inactive | EC50 (Human alphaherpesvirus 3 [15]): 4.68 µM; Activity (Influenza A virus [13]): inactive; inhibition [16]: 48%; EC50 (Human alphaherpesvirus 3 [17]): 4.68 µM; Activity (Coxsackievirus B4): inactive; Activity (Human betaherpesvirus 5 [14]): inactive
